According to patent US8431528B2, “Antibacterial Lactobacillus GG peptides and methods of use” (priority 2008, dated 2013):
Where two headings read alike, the source gives them in different places. Ends that are not written are not given here.

Experiments:
[1] = tested on: methicillin-resistant Staphylococcus aureus (MRSA); type: cell-based; details: MRSA growth (FIG. 11)
Description: LGG CM (19.7×10^12 CFU/ML) as positive control.

[2] = tested on: Tetracycline-resistant E. coli TOPO10; details: Tetracycline-resistant E. coli 8.7×10^13 CFU/ML, 3 hours, A600
Protocol: TOPO10 (8.76×10^13) 10 ml+100 ml peptide (in LB)+900 ml LB, mixed, incubated at 37° C., 225 rpm for 3 hours, at the end, measure A600 and calculation the inhibition rate. […] LGG CM (9.7×10^12 CFU/ML) as positive control.
(§1) SM 10_pir (2.6×10^13CFU) or TOPO10 (8.76×10^13) 10 μl, peptides solution 100 μl and (peptides dissolved in LB broth) were added into 900 ul LB broth, mixed, incubated at 37° C., for 3 hours with shaking at 225 rpm, measure the A600 at the end. Relative inhibition activity was calculated according to the following formula (1−A600 of sample group/A600 of control group)×100%.

[3] = tested on: Kanamycine-resistant E. coli SM10_pir; details: Kanamycine-resistant E. coli 2.6×10^13 CFU/ML, 3 hours, A600
Protocol: SM10_pir (2.6×10^13) 10 ml+100 ml peptide (in LB)+900 ml LB, mixed, incubated at 37° C., 225 rpm for 3 hours, at the end, measure A600 and calculation the inhibition rate. […] LGG CM (9.7×10^12 CFU/ML) as positive control.
as §1

[4] = tested on: Salmonella typhi; test: Colony-count relative inhibition of Salmonella growth by peptide NPSRQERR; type: cell-based; details: S. typhi 38×10^6 CFU/mL; 3 hours, then overnight colony count
[5] = tested on: E. coli EAEC 042; type: cell-based; details: EAEC 042, 3 h
Protocol: FIGS. 6A-6B show: EAEC 042 growth time-course (FIG. 6A). Ten microliters of E. coli (2.16×10^14 CFU/mL) were added in 1 mL LB broth and incubated in 37° C., shaking at 225 rpm, measuring A600 every 30 minutes. […] Ten microliters of EAEC 042 (7.7×10^12CFU/mL) were added to 1 mL LB broth mixed, and 100 mL of each peptide solution dissolved in MRS was added to the mixture. MRS alone (100 mL) and LGG CM (100 mL) (initial concentration 19.7×10^12CFU/mL) were used as negative and positive controls, respectively. The mixture was cultured for 3 hours and the A600 measured at the end of incubation. Also shown is the mean percentage inhibition ±SD. N=3 for all synthetic peptides tested. N=7 for LGG CM.
The assay was performed as described (12), with minor modifications. Briefly, 10 mL E. coli EAEC 042 (7.7×10^14CFU/mL) was added to 1.0 mL LB Broth, mixed, and 100 mL of each LGG-derived synthetic peptide solution dissolved in MRS (for peptide final concentration see FIG. 6B) was added to the mixture. MRS alone (100 mL) and LGG CM 100 mL (LGG concentration: 19.7×10^12 CFU/mL) were used as negative and positive controls, respectively. The mixture was cultured for 3 hours with shaking at 225 rpm, 37° C., measuring A600 at the end.

[6] = tested on: Staphylococcus aureus; test: Colony-count relative inhibition of Staphylococcus growth by peptide NPSRQERR; type: cell-based

Substance: NPSRQEFF (peptide sequence SEQ ID NO 1 where residues 7 and 8 are both replaced with Phe for a zero net charge) [variant of NPSRQERR with net positive charge decreased from 2 to 0]
- inhibition activity lost relative to NPSRQERR ([1]; net positive charge decreased from 2 to 0): 12%

Substance: NPSRQERR [NPSRQERR]
- inhibition rate ([2]; peptide 2.76 mM): 69.08%
- inhibition rate ([3]; peptide 2.76 mM): 43.75%
- peptide concentration at which 100% inhibition was reached [4]: 8 mmol/L
- E. coli growth inhibition [5]: 81.4%
- peptide concentration at which 100% inhibition was reached ([6]; S. aureus 44×10^6 CFU/mL, 3 hours, then overnight colony count): 64 mmol/L
- effect on S. aureus ([6]; compared with E. coli EAEC 042): less pronounced but dose dependent

Substance: NPSRQQRR (antibacterial peptide isolated from Lactobacillus GG) [variant of NPSRQERR with net positive charge increased from 2 to 3]
- inhibition activity increased relative to NPSRQERR ([1]; net positive charge increased from 2 to 3): 16.5%

Substance: PDENK [PDENK]
- inhibition rate ([2]; peptide 3.31 mM): 81.4%
- inhibition rate ([3]; peptide 3.31 mM): 68.54%
- E. coli growth inhibition [5]: 68.7%

Substance: VHTAPK [VHTAPK]
- inhibition rate ([2]; peptide 3.25 mM): 48.53%
- inhibition rate ([3]; peptide 3.25 mM): 29.45%
- E. coli growth inhibition [5]: 30%
